Test results: patent US6040338A, “N,n-bis(sulfonyl)hydrazines useful as antineoplastic agents” (Yale University, priority 1997, dated 2000)
“Also recorded” adds a separate entry of the source. Structures can show the parent of a compound that is named as a salt.

Legend:
[1] = system: L1210 leukemia; experiment: Survival time and body weight of mice bearing the L1210 leukemia; format: in vivo, mice (CD2 F1); details: for Av Δ wt (average percent change in body weight from onset to termination of therapy) / % 60-day survivors: Table 4; for Av Δ wt (average percent change in body weight from onset to termination of therapy): i.p. once daily for 6 days at optimum daily dose (10a 60, 10b 25, 10c 12.5, 10d-h 30 mg/kg); for % Body Weight Change / Average Survival / T/C / Long Term Survival: Table 5; for Long Term Survival: survivors/animals; for % 60-day survivors: i.p. once daily for 6 days at optimum daily dose (30 mg/kg for 10d-g)
Description: The ascites cell form of leukemia L1210 was obtained from the Frederick Cancer Research Facility, Division of Cancer Treatment Tumor Repository of the National Cancer Institute, and was maintained by serial passage in tissue culture. Every 8 weeks, tumor cells were injected intraperitoneally into 5 donor CD2 F1 mice 8-10 weeks of age and were allowed to grow for 7 days. The peritoneal fluid was withdrawn, and the suspension was centrifuged for 5 min at 1600×g. The supernatant was decanted, and 10^5 cells/ml were seeded into 10 ml of RPMI 1640 medium supplemented with 10% fetal bovine serum and 1% L-glutamine (200 mM) and once again maintained in culture. To assay for antitumor activity, 0.1 ml of the cell suspension containing 10^5 leukemia cells was injected into each recipient mouse. […] Each drug was administered intraperitoneally as a solution in 100% dimethyl sulfoxide, in a volume not exceeding 25 μl. […] Mice were weighed during the course of the experiments, and the percentage change in body weight from onset to termination of therapy was used as an indication of drug toxicity. Determination of the sensitivity of neoplasms to these agents was based upon the prolongation of survival time afforded by the drug treatments.
The antitumor activity of compounds 10a-h and 16 were assessed in mice bearing the L1210 leukemia. The results of these tests are summarized in Tables 4 and 5 which show the effects of 2-alkoxycarbonyl- and 2-aryloxycarbonyl-1,2-bis(methylsulfonyl)-1-(2-chloroethyl)hydrazines on the survival time of mice bearing the L1210 leukemia.
In Table 4, the optimum daily dose was administered once per day for six consecutive days, beginning 24 hours after tumor implantation, with 5-10 mice being used per group. In Table 5, multiple dosages of compound 16 are indicated. "Av Δ wt" refers to the average percent change in body weight from onset to termination of therapy. "% T/C" refers to the average survival time of treated/control mice×100. Cures (60-day survivors) are listed separately and are not included in this calculation.

[2] = Activation by thiolysis (GSH); format: in vitro ADME; details: 1 mM phosphate buffer, 5 mM GSH, pH 7.4, 37° C.
Description: (§1) The rates of activation of compounds 10a-h were measured in 1 mM phosphate buffer (pH 7.4, 37° C.) alone, 1 mM phosphate buffer containing 5 mM GSH (pH 7.4, 37° C.), and in 1 mM phosphate buffer containing 5 mM GSH and 17.5 U/ml of GST (pH 7.4, 37° C.) (Table 3).

[3] = system: GST; experiment: Activation by GST-catalyzed thiolysis; format: in vitro ADME; details: 1 mM phosphate buffer, 5 mM GSH, 17.5 U/ml GST, pH 7.4, 37° C.
Description: as §1

[4] = Activation by hydrolysis in phosphate buffer; format: physicochemical; details: 1 mM phosphate buffer, pH 7.4, 37° C.
Description: as §1

CS(=O)(=O)N(CCCl)N(C(=O)OCCCl)S(C)(=O)=O [Compound 10b, 1,2-Bis(methylsulfonyl)-1-(2-chloroethyl)-2-(2-chloroethoxycarbonyl)hydrazine]
Av Δ wt (average percent change in body weight from onset to termination of therapy) [1]: -10.7%
Calculated Activation Rate due to Thiolysis (5 mM GSH) [2]: 0.02 nmol/mL/min
Calculated Activation Rate due to Catalyzed Thiolysis (5 mM GSH + 17.5 U/ml GST) [3]: 0.08 nmol/mL/min
Calculated Activation Rate due to Hydrolysis [4]: 0.02 nmol/mL/min

C=COC(=O)N(N(CCCl)S(C)(=O)=O)S(C)(=O)=O [Compound 10c, 1,2-Bis(methylsulfonyl)-1-(2-chloroethyl)-2-(vinyloxycarbonyl)hydrazine]
Av Δ wt (average percent change in body weight from onset to termination of therapy) [1]: -12.4%
Calculated Activation Rate due to Thiolysis (5 mM GSH) [2]: 2.07 nmol/mL/min
Calculated Activation Rate due to Catalyzed Thiolysis (5 mM GSH + 17.5 U/ml GST) [3]: 4.70 nmol/mL/min
Calculated Activation Rate due to Hydrolysis [4]: 0.07 nmol/mL/min

CS(=O)(=O)N(CCCl)N(C(=O)OCOP(=O)(O)O)S(C)(=O)=O [Compound 16, triethanolamine salt of the free acid acid of O-dibenzylphosphate-methyl carbamate]
% Body Weight Change ([1]; multiple dose 6 × 10 mg/kg): -3.6%
Average Survival ([1]; multiple dose 6 × 10 mg/kg): 14.7 days
T/C ([1]; multiple dose 6 × 10 mg/kg): 184%
Long Term Survival ([1]; multiple dose 6 × 10 mg/kg): 2/5
% Body Weight Change ([1]; multiple dose 6 × 20 mg/kg): +2.5%
Average Survival ([1]; multiple dose 6 × 20 mg/kg): 19.5 days
T/C ([1]; multiple dose 6 × 20 mg/kg): 244%
Long Term Survival ([1]; multiple dose 6 × 20 mg/kg): 3/5
% Body Weight Change ([1]; multiple dose 6 × 40 mg/kg): +3.7%
Long Term Survival ([1]; multiple dose 6 × 40 mg/kg): 5/5
% Body Weight Change ([1]; multiple dose 6 × 60 mg/kg): -23.2%
Average Survival ([1]; multiple dose 6 × 60 mg/kg): 11.0 days
T/C ([1]; multiple dose 6 × 60 mg/kg): 138%
Long Term Survival ([1]; multiple dose 6 × 60 mg/kg): 3/5
activity against the L1210 leukemia (in words) ([1]; i.p. once daily for 6 days): significant activity against the L1210 leukemia tumor; also recorded: significant antitumor activity

CS(=O)(=O)N(CCCl)N(C(=O)Oc1ccccc1)S(C)(=O)=O [Compound 10d, 1,2-Bis(methylsulfonyl)-1-(2-chloroethyl)-2-(phenoxycarbonyl)hydrazine]
% 60-day survivors [1]: 40%
Av Δ wt (average percent change in body weight from onset to termination of therapy) [1]: -1.0%
Calculated Activation Rate due to Thiolysis (5 mM GSH) [2]: 0.37 nmol/mL/min
Calculated Activation Rate due to Catalyzed Thiolysis (5 mM GSH + 17.5 U/ml GST) [3]: 1.80 nmol/mL/min
Calculated Activation Rate due to Hydrolysis [4]: 0.06 nmol/mL/min

Cc1ccc(OC(=O)N(N(CCCl)S(C)(=O)=O)S(C)(=O)=O)cc1 [Compound 10e, 1,2-Bis(methylsulfonyl)-1-(2-chloroethyl)-2-[(4-tolyloxy)carbonyl]hydrazine]
% 60-day survivors [1]: 20%
Av Δ wt (average percent change in body weight from onset to termination of therapy) [1]: -3.0%
Calculated Activation Rate due to Thiolysis (5 mM GSH) [2]: 0.45 nmol/mL/min
Calculated Activation Rate due to Catalyzed Thiolysis (5 mM GSH + 17.5 U/ml GST) [3]: 1.52 nmol/mL/min
Calculated Activation Rate due to Hydrolysis [4]: 0.02 nmol/mL/min

COC(=O)N(N(CCCl)S(C)(=O)=O)S(C)(=O)=O [Compound 10a, 1,2-Bis(methylsulfonyl)-1-(2-chloroethyl)-2-(methoxycarbonyl)hydrazine]
Av Δ wt (average percent change in body weight from onset to termination of therapy) [1]: -10.9%
Calculated Activation Rate due to Thiolysis (5 mM GSH) [2]: 0.02 nmol/mL/min
Calculated Activation Rate due to Catalyzed Thiolysis (5 mM GSH + 17.5 U/ml GST) [3]: 0.00 nmol/mL/min
Calculated Activation Rate due to Hydrolysis [4]: 0.03 nmol/mL/min

CS(=O)(=O)N(CCCl)N(C(=O)Oc1ccc(Cl)cc1)S(C)(=O)=O [Compound 10f, 1,2-Bis(methylsulfonyl)-1-(2-chloroethyl)-2-[(4-chlorophenoxy)carbonyl]hydrazine]
% 60-day survivors [1]: 80%
Av Δ wt (average percent change in body weight from onset to termination of therapy) [1]: -1.1%
Calculated Activation Rate due to Thiolysis (5 mM GSH) [2]: 0.92 nmol/mL/min
Calculated Activation Rate due to Catalyzed Thiolysis (5 mM GSH + 17.5 U/ml GST) [3]: 5.33 nmol/mL/min
Calculated Activation Rate due to Hydrolysis [4]: 0.06 nmol/mL/min

COc1ccc(OC(=O)N(N(CCCl)S(C)(=O)=O)S(C)(=O)=O)cc1 [Compound 10g, 1,2-Bis(methylsulfonyl)-1-(2-chloroethyl)-2-[(4-methoxyphenoxy)carbonyl]hydrazine]
% 60-day survivors [1]: 40%
Av Δ wt (average percent change in body weight from onset to termination of therapy) [1]: -2.5%
Calculated Activation Rate due to Thiolysis (5 mM GSH) [2]: 0.41 nmol/mL/min
Calculated Activation Rate due to Catalyzed Thiolysis (5 mM GSH + 17.5 U/ml GST) [3]: 1.80 nmol/mL/min
Calculated Activation Rate due to Hydrolysis [4]: 0.14 nmol/mL/min
